Results on one molecule are retold here after patent US10883142B2, “Risk assessment for phenytoin-induced adverse drug reactions” (priority 2011, dated 2021).

The nature of data set [1]: Phenytoin plasma concentration during ADR onset, HPLC analysis of patients' plasma. Format: in vivo, human. The procedure: In this study, the phenytoin concentrations during ADR onset were determined from patients' plasma by HPLC analysis and estimated by non-linear pharmacokinetics formula: […]
Therapeutic levels of phenytoin are usually between 10-20 μg/ml. […] We also compared the phenytoin plasma levels of patients who carried CYP2Cs variants. […] Defective metabolism of phenytoin may increase the risk of drug accumulation, and leads to its risk to induce severe hypersensitivity reactions, such as SJS/TEN and DRESS.

For data set [2] the following is noted: patients who received phenytoin; cited from earlier work.
For data set [3] the following is noted: normal therapeutic range, plasma; cited from earlier work.

In the case of `O=C1NC(=O)C(c2ccccc2)(c2ccccc2)N1` [phenytoin], the phenytoin concentrations entry in data set [1] (5 phenytoin-ADRs patients who carry CYP2C9*3 variant (of 23 analysed)) is on record as “higher than 20 μg/ml”. The phenytoin plasma levels was in the range of 40 to 50 µg/mL in data set [1] (patients with phenytoin-SJS/TEN, P=0.006 vs. tolerant control) and 5 to 15 µg/mL in data set [1] (tolerant control patients, after taking drug). The “patients who developed hypersensitivity reactions” value in data set [2] is “more than 19%”. Besides, the “therapeutic levels of phenytoin” value in data set [3] is 10 to 20 µg/mL.
